Results on 22 compounds are retold here after patent publication US20220380374A1, “1,4-DIHYDROBENZO[D]PYRAZOLO[3,4-F][1,3]DIAZEPINE DERIVATIVES AND RELATED COMPOUNDS AS LRRK2, NUAK1 AND/OR TYK2 KINASE MODULATORS FOR THE TREATMENT OF E.G. AUTOIMMUNE DISEASE” (Origenis GMBH, priority 2019, published 2022).

Test [1] addresses T1, wt human TYK2, catalytic site (Homo sapiens, UniProt P29597).
T1 construct: 2 nM wt human TYK2, catalytic site (SignalChem/CAN); purchased SignalChem/CAN
T1 sequence (P29597 897-1176 limits assumed): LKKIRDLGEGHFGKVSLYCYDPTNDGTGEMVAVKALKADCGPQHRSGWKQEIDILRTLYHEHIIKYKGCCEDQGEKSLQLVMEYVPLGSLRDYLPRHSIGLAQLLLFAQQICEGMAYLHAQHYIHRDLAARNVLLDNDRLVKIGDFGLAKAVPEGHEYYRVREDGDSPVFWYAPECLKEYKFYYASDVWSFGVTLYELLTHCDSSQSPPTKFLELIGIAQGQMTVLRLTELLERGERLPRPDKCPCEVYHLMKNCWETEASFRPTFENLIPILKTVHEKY
Briefly: HTRF KinEASE assay, TYK2. In kind it is biochemical. Particulars: 1 μM ATP; read-out: IC50, inhibitory activity toward TYK2. The method in brief:
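2 nM wt human TYK2 catalytic domain with 1 μM biotinylated TK substrate and 1 μM ATP in 1× kinase buffer was incubated ≥30 min at room temperature. Antibody and streptavidin-XL665 were added, and HTRF emission ratios were read after 60 min.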

Test [2] has as its target T2, wt human NUAK1, full length (Homo sapiens, UniProt O60285).
T2 construct: 8 nM wt human NUAK1, full length (ThermoFisher/USA); purchased ThermoFisher/USA
T2 sequence (O60285 1-661): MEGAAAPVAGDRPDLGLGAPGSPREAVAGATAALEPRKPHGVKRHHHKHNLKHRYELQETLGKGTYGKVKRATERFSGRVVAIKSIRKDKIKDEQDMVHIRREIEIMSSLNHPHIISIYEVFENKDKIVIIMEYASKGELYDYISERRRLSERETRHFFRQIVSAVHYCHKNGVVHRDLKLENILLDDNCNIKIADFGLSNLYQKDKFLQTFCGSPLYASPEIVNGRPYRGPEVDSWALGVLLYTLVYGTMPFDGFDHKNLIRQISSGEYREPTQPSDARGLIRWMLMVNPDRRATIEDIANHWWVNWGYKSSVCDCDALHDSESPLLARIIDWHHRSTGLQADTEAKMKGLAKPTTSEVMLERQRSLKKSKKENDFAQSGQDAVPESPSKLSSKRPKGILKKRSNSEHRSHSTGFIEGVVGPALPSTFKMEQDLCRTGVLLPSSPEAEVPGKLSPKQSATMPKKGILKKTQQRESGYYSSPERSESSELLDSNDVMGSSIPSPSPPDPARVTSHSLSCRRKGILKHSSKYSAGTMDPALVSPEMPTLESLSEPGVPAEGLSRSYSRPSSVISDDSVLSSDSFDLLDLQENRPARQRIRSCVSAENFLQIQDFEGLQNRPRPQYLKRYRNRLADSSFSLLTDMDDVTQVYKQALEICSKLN
The experiment in a line: TR-FRET LanthaScreen Eu Kinase Binding Assay, NUAK1. Particulars: 5 nM Kinase Tracer 236; read-out: IC50, inhibitory activity toward NUAK1. The method in brief:
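TR-FRET tracer-displacement binding with 8 nM full-length wild-type human NUAK1, 2 nM Eu-anti-His antibody and 5 nM Kinase Tracer 236 in 1× Kinase Buffer A (final). Compound, kinase/antibody and tracer incubated 1 h at room temperature; emission ratios analysed per kit protocol.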

Take `Fc1cc2c(cc1OC1CCOCC1)N=C(c1c(Cl)cccc1Cl)Nc1c[nH]nc1-2` [Compound 222, 5-(2,6-dichlorophenyl)-9-fluoro-8-((tetrahydro-2H-pyran-4-yl)oxy)-2,4-dihydrobenzo[d]pyrazolo[3,4-f][1,3]diazepine]: the figures for the IC50 in test [1] and in test [2] were less than 10 nM and 100 to 1000 nM, respectively.
On the same counts, the results for `Fc1cc2c(cc1OC1CCOCC1)N=C(c1c(F)cccc1C(F)(F)F)Nc1c[nH]nc1-2` [Compound 223, 9-fluoro-5-(2-fluoro-6-(trifluoromethyl)phenyl)-8-((tetrahydro-2H-pyran-4-yl)oxy)-2,4-dihydrobenzo[d]pyrazolo[3,4-f][1,3]diazepine] are 10 to 100 nM and 100 to 1000 nM.
The like results for `Fc1cc2c(cc1-c1cccnn1)N=C(c1c(F)cccc1F)Nc1c[nH]nc1-2` [Compound 225, 5-(2,6-difluorophenyl)-9-fluoro-8-(pyridazin-3-yl)-2,4-dihydrobenzo[d]pyrazolo[3,4-f][1,3]diazepine] were, in that order, 10 to 100 nM and 10 to 100 nM.
On the same counts, the results for `Fc1cc2c(cc1-c1ccnnc1)N=C(c1c(F)cccc1F)Nc1c[nH]nc1-2` [Compound 226, 5-(2,6-difluorophenyl)-9-fluoro-8-(pyridazin-4-yl)-2,4-dihydrobenzo[d]pyrazolo[3,4-f][1,3]diazepine] are less than 10 nM and less than 10 nM.
As for `Fc1cc2c(cc1-c1cccnn1)N=C(c1c(Cl)cccc1Cl)Nc1c[nH]nc1-2` [Compound 227, 5-(2,6-dichlorophenyl)-9-fluoro-8-(pyridazin-3-yl)-2,4-dihydrobenzo[d]pyrazolo[3,4-f][1,3]diazepine], the values for the IC50 in test [1] and in test [2] were 10 to 100 nM and 100 to 1000 nM, respectively.
On the same counts, the results for `Fc1cc2c(cc1-c1cccnn1)N=C(c1c(F)cccc1Cl)Nc1c[nH]nc1-2` [Compound 228, 5-(2-chloro-6-fluorophenyl)-9-fluoro-8-(pyridazin-3-yl)-2,4-dihydrobenzo[d]pyrazolo[3,4-f][1,3]diazepine] are less than 10 nM and 10 to 100 nM.
With `Fc1cc2c(cc1-c1ccnnc1)N=C(c1c(Cl)cccc1Cl)Nc1c[nH]nc1-2` [Compound 229, 5-(2,6-dichlorophenyl)-9-fluoro-8-(pyridazin-4-yl)-2,4-dihydrobenzo[d]pyrazolo[3,4-f][1,3]diazepine], the IC50 in test [1] is less than 10 nM; in test [2], 100 to 1000 nM.
`Fc1cc2c(cc1-c1ccnnc1)N=C(c1c(F)cccc1Cl)Nc1c[nH]nc1-2` [Compound 230, 5-(2-chloro-6-fluorophenyl)-9-fluoro-8-(pyridazin-4-yl)-2,4-dihydrobenzo[d]pyrazolo[3,4-f][1,3]diazepine]: the IC50 is less than 10 nM in test [1] and 10 to 100 nM in test [2].
On the same counts, the results for `Fc1cc2c(cc1-c1ccccc1)N=C(c1c(F)cccc1F)Nc1c[nH]nc1-2` [Compound 231, 5-(2,6-difluorophenyl)-9-fluoro-8-phenyl-2,4-dihydrobenzo[d]pyrazolo[3,4-f][1,3]diazepine] are 10 to 100 nM and 10 to 100 nM.
On the same counts, the results for `Fc1ccccc1-c1ccc2c(c1)N=C(c1c(F)cccc1F)Nc1c[nH]nc1-2` [Compound 233, 5-(2,6-difluorophenyl)-8-(2-fluorophenyl)-2,4-dihydrobenzo[d]pyrazolo[3,4-f][1,3]diazepine] are 10 to 100 nM and 10 to 100 nM.
Take `Fc1ccccc1-c1ccc2c(c1)N=C(c1c(F)cccc1Cl)Nc1c[nH]nc1-2` [Compound 234, 5-(2-chloro-6-fluorophenyl)-8-(2-fluorophenyl)-2,4-dihydrobenzo[d]pyrazolo[3,4-f][1,3]diazepine]: the IC50 was 10 to 100 nM in test [1] and less than 10 nM in test [2].
The like results for `CC(C)Oc1cc2c(cc1F)-c1n[nH]cc1N=C(c1c(F)cccc1Cl)N2` [Compound 235, 5-(2-chloro-6-fluorophenyl)-9-fluoro-8-isopropoxy-2,6-dihydrobenzo[d]pyrazolo[3,4-f][1,3]diazepine] were, in that order, 10 to 100 nM and 10 to 100 nM.
Regarding `Fc1ccccc1-c1ccc2c(c1)N=C(c1c(Cl)cccc1Cl)Nc1c[nH]nc1-2` [Compound 236, 5-(2,6-dichlorophenyl)-8-(2-fluorophenyl)-2,4-dihydrobenzo[d]pyrazolo[3,4-f][1,3]diazepine], the IC50 is less than 10 nM in test [1] and 100 to 1000 nM in test [2].
The like results for `Fc1ccc(-c2ccc3c(c2)N=C(c2c(F)cccc2F)Nc2c[nH]nc2-3)cc1` [Compound 237, 5-(2,6-difluorophenyl)-8-(4-fluorophenyl)-2,4-dihydrobenzo[d]pyrazolo[3,4-f][1,3]diazepine] were, in that order, 10 to 100 nM and less than 10 nM.
Regarding `Fc1ccc(-c2ccc3c(c2)N=C(c2c(F)cccc2Cl)Nc2c[nH]nc2-3)cc1` [Compound 238, 5-(2-chloro-6-fluorophenyl)-8-(4-fluorophenyl)-2,4-dihydrobenzo[d]pyrazolo[3,4-f][1,3]diazepine], the IC50 in test [1] and in test [2] was 10 to 100 nM in each case.
Turning to `CCC(C)Oc1cc2c(cc1F)-c1n[nH]cc1N=C(c1c(F)cccc1Cl)N2` (centres unmarked) [Compound 239, 8-(sec-butoxy)-5-(2-chloro-6-fluorophenyl)-9-fluoro-2,6-dihydrobenzo[d]pyrazolo[3,4-f][1,3]diazepine], the half-maximal inhibitory concentration (IC50) in test [1] was 10 to 100 nM; in test [2], 100 to 1000 nM.
On the same counts, the results for `Fc1cccc(-c2ccc3c(c2)N=C(c2c(F)cccc2F)Nc2c[nH]nc2-3)c1` [Compound 240, 5-(2,6-difluorophenyl)-8-(3-fluorophenyl)-2,4-dihydrobenzo[d]pyrazolo[3,4-f][1,3]diazepine] are 10 to 100 nM and 10 to 100 nM.
In the case of `Fc1cccc(-c2ccc3c(c2)N=C(c2c(F)cccc2Cl)Nc2c[nH]nc2-3)c1` [Compound 241, 5-(2-chloro-6-fluorophenyl)-8-(3-fluorophenyl)-2,4-dihydrobenzo[d]pyrazolo[3,4-f][1,3]diazepine], the IC50 is less than 10 nM in test [1] and 10 to 100 nM in test [2].
The like results for `Fc1ccc(-c2ccc3c(c2)N=C(c2c(Cl)cccc2Cl)Nc2c[nH]nc2-3)cc1` [Compound 242, 5-(2,6-dichlorophenyl)-8-(4-fluorophenyl)-2,4-dihydrobenzo[d]pyrazolo[3,4-f][1,3]diazepine] were, in that order, less than 10 nM and 10 to 100 nM.
On the same counts, the results for `Fc1cccc(-c2ccc3c(c2)N=C(c2c(Cl)cccc2Cl)Nc2c[nH]nc2-3)c1` [Compound 243, 5-(2,6-dichlorophenyl)-8-(3-fluorophenyl)-2,4-dihydrobenzo[d]pyrazolo[3,4-f][1,3]diazepine] are 10 to 100 nM and 100 to 1000 nM.
Turning to `Fc1cc2c(cc1OC1CCCC1)N=C(c1c(F)cccc1Cl)Nc1c[nH]nc1-2` [Compound 245, 5-(2-chloro-6-fluorophenyl)-8-(cyclopentyloxy)-9-fluoro-2,4-dihydrobenzo[d]pyrazolo[3,4-f][1,3]diazepine], the IC50 in test [1] lay in the range of 10 to 100 nM; in test [2], 100 to 1000 nM.
`CC[C@H](C)Oc1cc2c(cc1F)-c1n[nH]cc1N=C(c1c(F)cccc1Cl)N2` [Compound 247, (S)-8-(sec-butoxy)-5-(2-chloro-6-fluorophenyl)-9-fluoro-2,6-dihydrobenzo[d]pyrazolo[3,4-f][1,3]diazepine]: the concentration for half-maximal inhibition (IC50) in test [1] and in test [2] was 10 to 100 nM each time.
